Measured values: PubChem BioAssay (NCI)
Values joined by “and” are separate entries in the source; they are usually repeats but may differ in a detail not shown here. Equal values may be shown once.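 Cells were grown in 96-well plates and exposed to each compound for 48 hours at five concentrations; endpoints were interpolated linearly between bracketing concentrations, or set to the highest concentration if not reached. Here, GI50 denotes the concentration required for 50% inhibition of growth. TGI marks complete inhibition of growth.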

Columns and labels:
Assay in all cases: NCI tumour cell line growth inhibition, 48 h
[1] = system: SK-MEL-28 melanoma
[2] = system: NCI/ADR-RES ovarian
[3] = system: ACHN renal
[4] = system: SF-539 CNS
[5] = system: RPMI-8226 leukemia
[6] = system: OVCAR-8 ovarian
[7] = system: SW-620 colon
[8] = system: K-562 leukemia
[9] = system: HCC-2998 colon
[10] = system: IGROV1 ovarian

Compound	GI50 [1]	TGI [1]	GI50 [2] [µM]	TGI [2] [µM]	GI50 [3] [µM]	TGI [3] [µM]	GI50 [4] [µM]	TGI [4]	GI50 [5] [µM]	TGI [5]	GI50 [6] [µM]	TGI [6] [µM]	GI50 [7] [µM]	TGI [7] [µM]	GI50 [8] [µM]	TGI [8] [µM]	GI50 [9] [µM]	TGI [9]	GI50 [10] [µM]	TGI [10] [µM]
O=C(Nc1cccc(-n2cc(-c3ccncc3)c(-c3cc(O)cc(Cl)c3)n2)c1)Nc1ccc(Cl)c(C(F)(F)F)c1	2.01 µM	6.2 µM	3.4	23.6	3.1	15.3	1.97	4.49 µM	1.95	5.09 µM	2.15	5.55	3.29	10.7	2.59	11.9	3.93	13.4 µM	3.81	12.6
O=C1C(N2CC2)=C(N2CC2)C(=O)C(N2CC2)=C1N1CC1	0.838 µM	2.32 µM	–	1.3	< 0.0179	0.351	0.104	1.24 µM	2.74	17.2 µM	0.344	6.99	0.419	6.09	0.785	> 100	0.168	0.569 µM	0.312	2.38
C=C1/C(=C\C=C2/CCC[C@]3(C)[C@@H]([C@H](C)CCCC(C)(C)O)CC[C@@H]23)C[C@@H](OC(=O)CBr)C[C@@H]1O	4.95 µM	10.9 µM	1.95	18.7	0.709	5.13	0.212	0.629 µM	0.293	2.48 µM	2.12	30.5	1.78	3.96	2.75	> 33.9	13.6	27.5 µM	0.0604	0.15
COc1cc(Nc2c(C#N)cnc3cc(OCCCN4CCN(C)CC4)c(OC)cc23)c(Cl)cc1Cl	2.13 µM	5.08 µM	4.6	42.9	0.317	9.7	2.3	5.83 µM	5.32	13.9 µM	2.35	14.4	3.26	11.4	0.0211	3.82	3.08	9.21 µM	0.279	3.09
COc1cc2oc3cc(=O)cc4oc(-c5ccccc5)cc(c2c2c1CCC(c1ccccc1)O2)c43 (configuration not stated)	–	> 100 µM	–	> 100	–	61.9	–	> 100 µM	–	20.9 µM	–	> 100	–	> 100	–	83.9	–	> 100 µM	–	> 100
COc1cc2c3c(n(CCCCN)c(=O)c2cc1OC)-c1cc2c(cc1C3=O)OCO2	1.56 µM	12.4 µM	2.34	11.2	0.38	1.35	0.0434	0.139 µM	0.351	1.31 µM	0.71	13.1	0.0851	2.3	0.431	2.17	0.659	2.26 µM	1.14	5.08
COc1cc(NC(C)CCCN)c2ncccc2c1 (configuration not stated)	22.1 µM and 74 µM	47.5 µM and > 100 µM	–	> 100	–	> 100	–	> 100 µM	–	> 100 µM	–	> 100	–	> 100	–	> 100	–	31.6 µM and 58.5 µM	–	> 100
COC(=O)[C@@]12OC[C@]34[C@H]([C@@H](O)[C@@H]1O)[C@@]1(C)[C@H](O)C(=O)C=C(C)[C@@H]1C[C@H]3OC(=O)C(OC(C)=O)[C@@H]24 (some centres not stated)	0.019 µM	0.0642 µM	0.904	8.53	0.0502	0.28	0.0218	0.0612 µM	0.017	0.0396 µM	0.0371	0.266	0.0242	0.128	0.0314	–	0.0168	0.111 µM	0.0302	0.134
C=CCC1(O)c2ccccc2C(=O)c2c(NCCN(CC(=O)OCC)CC(=O)OCC)cccc21 (configuration not stated)	> 100 µM	> 100 µM	> 100	> 100	> 100	> 100	> 100	> 100 µM	98.5	> 100 µM	> 100	> 100	> 100	> 100	30.9	> 100	> 100	> 100 µM	> 100	> 100
COc1cccc2c1C(=O)c1c(O)c3c(c(O)c1C2=O)CC(O)(C(O)CO)CC3OC1CC(N2CCOCC2)C(O)C(C)O1 (configuration not stated)	0.0221 µM	0.0168 µM and 0.0592 µM	–	0.31	–	0.122	0.0187	0.014 µM and 0.0744 µM	0.0191	0.147 µM and 0.486 µM	–	0.0281	0.0138	–	–	1.61	–	0.00372 µM and 0.0304 µM	0.0288	–
CC1CC2OC(=O)C(C)C2CC2(C)C(OC3OC(CO)C(O)C(O)C3O)OCCC12 (configuration not stated)	–	> 100 µM	–	> 100	–	> 100	–	> 100 µM	–	> 100 µM	–	> 100	–	> 100	–	> 100	–	> 100 µM	–	> 100
Cc1cc(NCCN(C(C)C)C(C)C)nc(/N=C(\N)Nc2ccc(Cl)c(C(F)(F)F)c2)n1	0.176 µM	0.32 µM	1.67	3.45	0.381	1.06	0.179	0.329 µM	0.22	0.662 µM	0.275	0.812	0.532	1.62	0.191	0.411	0.214	0.469 µM	0.819	2.75
COc1cccc(C2=C(c3c(C)n(C)c4ccccc34)C(=O)NC2=O)c1	24.9 µM	> 25 µM	14	> 25	> 25	> 25	> 25	> 25 µM	> 25	> 25 µM	> 25	> 25	12.4	> 25	11	> 25	> 25	> 25 µM	> 22.3	> 25
c1csc(-c2cn3nc(-c4c[nH]c5ccccc45)sc3n2)c1	4.74 µM	44 µM	0.561	> 100	3.23	52.5	1.49	4.6 µM	1.47	15.4 µM	2.72	> 100	0.434	> 100	0.382	39.9	2.99	26.7 µM	1.79	> 100
CN[C@H](C#Cc1c(F)ccc2c1/C(=C/c1[nH]ccc1OC)C(=O)N2)CO	0.646 µM	4.31 µM	0.973	6.58	0.115	2.71	0.431	1.53 µM	0.689	1.8 µM	0.551	4.25	0.476	2.71	0.989	5.89	0.746	3.27 µM	0.682	3.32
